Source: patent US20130096067A1, “DROSOPHILA TUMOR STEM CELL MODEL AND USES THEREOF” (priority 2011, published 2013)
Like-named read-outs stand apart in the source and are kept apart here.

Test system: Raf-1^gof intestinal tumors
[1] = ICCB compounds fed in vials to flies with one-day old Raf-1^gof tumors, assessed three days later
[2] = ICCB compounds fed in vials to flies with one-day old Raf-1^gof tumors, assessed three days later, averaged from multiple wells
[3] = screen of 480 ICCB compounds in vials, compounds fed to flies with one-day old Raf-1^gof tumors, assessed three days later, esg-Gal4 luciferase
[4] = screen of 480 ICCB compounds in vials, compounds fed to flies with one-day old Raf-1^gof tumors, assessed three days later, esg-Gal4 luciferase, averaged from multiple wells
Further: test concentration or dose not given here.

Compound	Log2 (fold) of luciferase activity relative to DMSO controls [1]	Fold (luciferase activity relative to DMSO controls) [2]	Log2 (fold) (luciferase activity, log2 of the fold difference relative to DMSO controls) [3]	Fold (luciferase activity, fold difference relative to DMSO controls) [4]	other results
O=C1NCN(c2ccccc2)C12CCN(CCCC(c1ccc(F)cc1)c1ccc(F)cc1)CC2 [FLUSPIRILINE]	−0.192	0.875 fold			
CCCCC[C@H](O)C/C=C1/C(=O)C=C[C@@H]1C/C=C\CCCC(=O)O [D12-PROSTAGLANDIN J2]					Fold (luciferase activity relative to DMSO controls) (in vivo): 0.988 fold; Log2 (fold) of luciferase activity relative to DMSO controls (in vivo): −0.017
OC[C@H]1NC[C@@H](O)[C@@H](O)[C@@H]1O [deoxymannojirimycin(1)]	−0.125	0.917 fold			
CCCCC[C@H](O)/C=C/[C@H]1C=CC(=O)[C@@H]1CCCCCCC(=O)O [PROSTAGLANDIN A1]			−0.522	0.696	
CC(C)=CC[C@@H](O)C1=CC(=O)c2c(O)ccc(O)c2C1=O [Shikonin]			−0.795	0.576	
COc1cc(/C=C(\C#N)C(N)=O)cc(CSc2nc3ccccc3s2)c1O [tyrphostin AG-825]	−0.042	0.972 fold			
O=C(/C=C/c1ccc(O)c(O)c1)OCCc1ccccc1 [CAPE]			−0.324	0.799	
mastoparan			−0.301	0.812	
CC1(C)CCC2=C(O1)c1ccccc1C(=O)C2=O [beta-lapachone]	0.070	1.050 fold			
COc1cc2c(cc1OC)-c1c/c(=N\c3c(C)cc(C)cc3C)n(C)c(=O)n1CC2 [Trequinsin]			−0.279	0.824	
CC(C)(C)c1cc(/C=C(\C#N)C(N)=S)cc(C(C)(C)C)c1O [AG-879]	0.902	1.869 fold			
CCOC(=O)C(C)(C)Oc1ccc(Cl)cc1 [CLOFIBRATE]	0.221	1.165 fold			
NCCc1c[nH]cn1 [HISTAMINE]	−0.158	0.896 fold			
N#C/C(=C\c1cc(Cl)cc(Cl)c1)c1cccnc1 [RG-14620]			−0.483	0.715	
CCCCC[C@H](O)/C=C/C=C\C/C=C\C/C=C\CCCC(=O)O [15(S)-HETE]			−0.309	0.807	
CCCCC[C@H](O)/C=C/[C@@H]1[C@H](C/C=C\CCCC(=O)O)[C@@H](O)C[C@H]1O [8-EPI-PROSTAGLANDIN F2a]			−0.657	0.634	
CO/C1=C\C(C)=C\[C@@H](C)[C@@H](O)[C@@H](C)C/C(C)=C/C=C/[C@H](OC)[C@@H]([C@@H](C)[C@@H](O)[C@H](C)[C@@]2(O)C[C@@H](O)[C@H](C)[C@@H](C(C)C)O2)OC1=O [bafilomycin A1]			−0.234	0.850	
O=S(=O)(c1cccc2c(I)cccc12)N1CCCNCC1 [ML7]	0.192	1.143 fold			
c1ccc(CN(CCN(Cc2ccccn2)Cc2ccccn2)Cc2ccccn2)nc1 [TPEN]			−0.717	0.608	
CCCCC[C@H](O)/C=C/[C@@H]1[C@@H](C/C=C\CCCC(=O)O)[C@H](O)C[C@H]1O [9b,11a-PROSTAGLANDIN F2]	0.062	1.044 fold			
CCCCCCCCCCCCCCCC(=O)N[C@@H](COP(=O)(O)O)C(=O)O [L-NASPA]	0.003	1.002 fold			
CCCCCCCCCCOCCC(=O)O [4-OXATETRADECANOIC ACID]	0.004	1.003 fold			
CCCCC[C@@H](/C=C/C=C\C/C=C\C/C=C\CCCC(=O)O)OO [15(S)-HPETE]	0.361	1.285 fold			
COC(=O)[C@@H]1[C@H]2C[C@H]3c4[nH]c5ccccc5c4CCN3C[C@@H]2CC[C@@H]1O [yohimbine]	0.061	1.043 fold			

Compound	Log2 (fold) of luciferase activity relative to DMSO controls [1]	Fold (luciferase activity relative to DMSO controls) [2]	Log2 (fold) (luciferase activity, log2 of the fold difference relative to DMSO controls) [3]	Fold (luciferase activity, fold difference relative to DMSO controls) [4]	other results
COc1cccc(-c2cc(=O)c3ccccc3o2)c1N [PD 98059]			−0.338	0.791	
NC(=O)c1cccc(N)c1	−0.160	0.895 fold			
CS(=O)(=O)Nc1ccc([N+](=O)[O-])cc1Oc1ccccc1 [Nimesulide]			−0.264	0.833	
Nc1nc2c(nc(Br)n2[C@@H]2O[C@@H]3COP(=O)(O)O[C@H]3[C@H]2O)c(=O)[nH]1 [Bromo-cGMP [8-Bromo-cGMP]]	0.021	1.015 fold			
Nc1cc(N2CCCCC2)nc(N)[n+]1[O-] [MINOXIDIL]			−0.292	0.817	
COC(=O)C1=C(C)NC(C)=C(C(=O)OCCSc2ccccc2)C1C (stereo not drawn) [PCA 4248]	−0.180	0.883 fold			
CCCCCCCCCC(=O)OCC(CO)OC(=O)CCCCCCCCC (stereo not drawn) [1,2-DIDECANOYL-GLYCEROL (10:0)]	0.310	1.240 fold			
N#CC(=Cc1ccc2[nH]ccc2c1)C(N)=C(C#N)C#N [tyrphostin AG-370]	0.314	1.243 fold			
CCC(C)[C@H](NS(=O)(=O)c1cccc2ccccc12)C(=O)N[C@H](C=O)Cc1c[nH]c2ccccc12 (stereo partly drawn) [NapSul-Ile-Trp-CHO]			−0.554	0.681	
CCCCC/C=C\C/C=C\CCCCCCCC(=O)OC(CO)COC(=O)CCCCCCCCCCCCCCCCC (stereo not drawn) [1-STEAROYL-2-LINOLEOYL-GLYCEROL]			−0.456	0.729	
CC(=O)OCOC(=O)CN(CC(=O)OCOC(C)=O)c1ccccc1OCCOc1ccccc1N(CC(=O)OCOC(C)=O)CC(=O)OCOC(C)=O [BAPTA-AM]			−0.242	0.846	
CCCCCCCCCC(=O)N[C@H](CN1CCOCC1)[C@H](O)c1ccccc1 (racemic) [DL-PDMP]	0.078	1.056 fold			
CCCCCCCCCCCCCCCCCCc1ccc(C(=O)/C=C/C(=O)O)cc1 [OBAA]	−0.169	0.890 fold			
CCCCC/C=C/C=C1/C(=O)C=C[C@@H]1C/C=C\CCCC(=O)O [15d-Prostaglandin J2]	0.294	1.226 fold			
CCCCC[C@H](O)/C=C/[C@H]1C=CC(=O)[C@@H]1C/C=C\CCCC(=O)O [PROSTAGLANDIN A2]			−0.295	0.815	
CCCCC/C=C\C[C@@H](O)/C=C/C=C\C/C=C\CCCC(=O)O [12(R)-HETE]			−0.219	0.859	
CCCCCc1cc(O)c2c(c1)OC(C)(C)C1CCC(C(=O)O)=CC21 (stereo not drawn) [TETRAHYDROCANNABINOL-7-OIC ACID]			−0.240	0.847	
CCCCC/C=C\C[C@@H](O)/C=C/C=C/C=C\[C@@H](O)CCCC(=O)O [LEUKOTRIENE B4]	−0.037	0.975 fold			
CC(/C=C/C(=O)NO)=C\[C@@H](C)C(=O)c1ccc(N(C)C)cc1 [trichostatin-A]	−0.109	0.927 fold			
COC(=O)C1=C(C)NC(C)=C(C(=O)OCCCN2CCC(c3ccccc3)(c3ccccc3)CC2)[C@H]1c1cccc([N+](=O)[O-])c1 [NIGULDIPINE]					Fold (luciferase activity, fold difference relative to DMSO controls) (in vivo): 0.812; Log2 (fold) (luciferase activity, log2 of the fold difference relative to DMSO controls) (in vivo): −0.301
CCCCCCCCCCCCC/C=C/[C@@H](O)[C@H](CO)NCCCCCCCC [C8 CERAMINE]			−0.302	0.811	
COc1ccc(CCCOC(Cn2ccnc2)c2ccc(OC)cc2)cc1 (stereo not drawn) [SKF-96365]	0.134	1.097 fold			
CCN(CC)CC(=O)Nc1c(C)cccc1C [LIDOCAINE]	0.049	1.035 fold			
COCc1nc2c([nH]1)c(=O)n(C)c(=O)n2CC(C)C [8-methoxymethyl-IBMX]	0.006	1.004 fold			
